Measurements reported in PubChem BioAssay (NCI).
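The compound was tested at five concentrations on cells cultured in 96-well plates, with a 48-hour exposure period. The concentration for 50% growth inhibition is given as GI50. The concentration for full growth arrest is given as TGI.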

What was measured:
Test in all cases: growth of human tumour cells (NCI), 48 h
TK-10 renal = test system: TK-10 renal
HT29 colon = test system: HT29 colon
OVCAR-4 ovarian = test system: OVCAR-4 ovarian
HCT-116 colon = test system: HCT-116 colon
KM12 colon = test system: KM12 colon
BT-549 breast = test system: BT-549 breast
IGROV1 ovarian = test system: IGROV1 ovarian
A498 renal = test system: A498 renal
SK-MEL-28 melanoma = test system: SK-MEL-28 melanoma
MALME-3M melanoma = test system: MALME-3M melanoma
RXF 393 renal = test system: RXF 393 renal
LOX IMVI melanoma = test system: LOX IMVI melanoma
M14 melanoma = test system: M14 melanoma
DU-145 prostate = test system: DU-145 prostate
RPMI-8226 leukemia = test system: RPMI-8226 leukemia
COLO 205 colon = test system: COLO 205 colon
NCI-H460 lung = test system: NCI-H460 lung
HCC-2998 colon = test system: HCC-2998 colon
UACC-62 melanoma = test system: UACC-62 melanoma
UACC-257 melanoma = test system: UACC-257 melanoma
SK-MEL-5 melanoma = test system: SK-MEL-5 melanoma
SR leukemia = test system: SR leukemia
A549 NSCLC = test system: A549 NSCLC
HOP-92 NSCLC = test system: HOP-92 NSCLC
CCRF-CEM leukemia = test system: CCRF-CEM leukemia
NCI-H522 lung = test system: NCI-H522 lung
SF-295 CNS = test system: SF-295 CNS
MOLT-4 leukemia = test system: MOLT-4 leukemia
HS 578T breast = test system: HS 578T breast
SNB-75 CNS = test system: SNB-75 CNS
MDA-MB-231 breast = test system: MDA-MB-231 breast
MDA-MB-435 = test system: MDA-MB-435
HOP-62 NSCLC = test system: HOP-62 NSCLC
HCT-15 colon = test system: HCT-15 colon
SNB-19 CNS = test system: SNB-19 CNS
SK-MEL-2 melanoma = test system: SK-MEL-2 melanoma
SF-268 CNS = test system: SF-268 CNS
OVCAR-3 ovarian = test system: OVCAR-3 ovarian
SW-620 colon = test system: SW-620 colon
U251 CNS = test system: U251 CNS
UO-31 renal = test system: UO-31 renal
SN12C renal = test system: SN12C renal
OVCAR-5 ovarian = test system: OVCAR-5 ovarian
OVCAR-8 ovarian = test system: OVCAR-8 ovarian
SF-539 CNS = test system: SF-539 CNS
K-562 leukemia = test system: K-562 leukemia
CAKI-1 renal = test system: CAKI-1 renal
PC-3 prostate = test system: PC-3 prostate
NCI-H23 lung = test system: NCI-H23 lung
786-0 renal = test system: 786-0 renal
HL-60(TB) leukemia = test system: HL-60(TB) leukemia
EKVX NSCLC = test system: EKVX NSCLC
NCI/ADR-RES ovarian = test system: NCI/ADR-RES ovarian

O=C(Nc1ccc(F)cc1F)c1cc(F)ccc1O
GI50 (TK-10 renal): 4.48 µM | TGI (TK-10 renal): > 100 µM | GI50 (HT29 colon): 3.37 µM | TGI (HT29 colon): > 100 µM | GI50 (OVCAR-4 ovarian): 2.59 µM | TGI (OVCAR-4 ovarian): > 100 µM | GI50 (HCT-116 colon): 2.91 µM | TGI (HCT-116 colon): 11.1 µM | GI50 (KM12 colon): 2.76 µM | TGI (KM12 colon): 10.6 µM | GI50 (BT-549 breast): 2.43 µM | TGI (BT-549 breast): 6.75 µM | GI50 (IGROV1 ovarian): 2.58 µM | TGI (IGROV1 ovarian): > 100 µM | GI50 (A498 renal): 1.84 µM | TGI (A498 renal): 5.53 µM | GI50 (SK-MEL-28 melanoma): 2.77 µM | TGI (SK-MEL-28 melanoma): 13.2 µM | GI50 (MALME-3M melanoma): 2.04 µM | TGI (MALME-3M melanoma): 7.66 µM | GI50 (RXF 393 renal): 2.49 µM | TGI (RXF 393 renal): 8.33 µM | GI50 (LOX IMVI melanoma): 3.39 µM | TGI (LOX IMVI melanoma): 12.1 µM | GI50 (M14 melanoma): 2.82 µM | TGI (M14 melanoma): 13.2 µM | GI50 (DU-145 prostate): 3.62 µM | TGI (DU-145 prostate): > 100 µM | GI50 (RPMI-8226 leukemia): 1.4 µM | TGI (RPMI-8226 leukemia): 5.01 µM | GI50 (COLO 205 colon): 2.08 µM | TGI (COLO 205 colon): 5.06 µM | GI50 (NCI-H460 lung): 2.94 µM | TGI (NCI-H460 lung): > 100 µM | GI50 (HCC-2998 colon): 3.12 µM | TGI (HCC-2998 colon): 13.1 µM | GI50 (UACC-62 melanoma): 1.38 µM | TGI (UACC-62 melanoma): 4.12 µM | GI50 (UACC-257 melanoma): 2.26 µM | TGI (UACC-257 melanoma): 7.32 µM | GI50 (SK-MEL-5 melanoma): 1.27 µM | TGI (SK-MEL-5 melanoma): 2.81 µM | GI50 (SR leukemia): 3.95 µM | TGI (SR leukemia): > 100 µM | GI50 (A549 NSCLC): 3.04 µM | TGI (A549 NSCLC): > 100 µM | GI50 (HOP-92 NSCLC): 0.569 µM | TGI (HOP-92 NSCLC): 3.59 µM | GI50 (CCRF-CEM leukemia): 3.35 µM | TGI (CCRF-CEM leukemia): > 100 µM | GI50 (NCI-H522 lung): 2.59 µM | TGI (NCI-H522 lung): > 100 µM | GI50 (SF-295 CNS): 1.99 µM | TGI (SF-295 CNS): 4.36 µM | GI50 (MOLT-4 leukemia): 2.63 µM | TGI (MOLT-4 leukemia): 6.88 µM | GI50 (HS 578T breast): 2.37 µM | TGI (HS 578T breast): 9.14 µM | GI50 (SNB-75 CNS): 3.19 µM | TGI (SNB-75 CNS): 30.7 µM | GI50 (MDA-MB-231 breast): 1.9 µM | TGI (MDA-MB-231 breast): 4.9 µM | GI50 (MDA-MB-435): 2.86 µM | TGI (MDA-MB-435): 34.2 µM | GI50 (HOP-62 NSCLC): 2.9 µM | TGI (HOP-62 NSCLC): 47.2 µM | GI50 (HCT-15 colon): 2.92 µM | TGI (HCT-15 colon): > 100 µM | GI50 (SNB-19 CNS): 3.17 µM | TGI (SNB-19 CNS): > 100 µM | GI50 (SK-MEL-2 melanoma): 2.48 µM | TGI (SK-MEL-2 melanoma): 6.54 µM | GI50 (SF-268 CNS): 3.34 µM | TGI (SF-268 CNS): 67.1 µM | GI50 (OVCAR-3 ovarian): 2.77 µM | TGI (OVCAR-3 ovarian): 21.9 µM | GI50 (SW-620 colon): 3.15 µM | TGI (SW-620 colon): > 100 µM | GI50 (U251 CNS): 2.95 µM | TGI (U251 CNS): > 100 µM | GI50 (UO-31 renal): 1.96 µM | TGI (UO-31 renal): 7.16 µM | GI50 (SN12C renal): 2.2 µM | TGI (SN12C renal): 8.02 µM | GI50 (OVCAR-5 ovarian): 3.18 µM | TGI (OVCAR-5 ovarian): > 100 µM | GI50 (OVCAR-8 ovarian): 3.44 µM | TGI (OVCAR-8 ovarian): > 100 µM | GI50 (SF-539 CNS): 2.85 µM | TGI (SF-539 CNS): 12.3 µM | GI50 (K-562 leukemia): 2.41 µM | TGI (K-562 leukemia): > 100 µM | GI50 (CAKI-1 renal): 2.37 µM | TGI (CAKI-1 renal): 11.6 µM | GI50 (PC-3 prostate): 2.61 µM | TGI (PC-3 prostate): 9.53 µM | GI50 (NCI-H23 lung): 2.07 µM | TGI (NCI-H23 lung): 6.62 µM | GI50 (786-0 renal): 3.19 µM | TGI (786-0 renal): 16.2 µM | GI50 (HL-60(TB) leukemia): 2.33 µM | TGI (HL-60(TB) leukemia): 5.38 µM | GI50 (EKVX NSCLC): 2.23 µM | TGI (EKVX NSCLC): 10.5 µM | GI50 (NCI/ADR-RES ovarian): 2.81 µM | TGI (NCI/ADR-RES ovarian): 9.78 µM
